According to ChEMBL document CHEMBL1144499, “Complanadines C and D, new dimeric alkaloids from Lycopodium complanatum” (Bioorg Med Chem, 2007):
Converted amounts (≈) assume the structure as drawn. The source made the active and inactive calls. The calls are words filed in the database; no cut-off is given here.

Tests used:
Cryptococcus neoformans = test: Antimicrobial activity against Cryptococcus neoformans; format: functional
Aspergillus niger = test: Antimicrobial activity against Aspergillus niger; format: functional
L1210 = test: Cytotoxicity against mouse L1210 cells; format: cell-based
1321-N1 = test: Enhancement of NGF mRNA expression in human 1321N1 cells; format: functional, cell-based

C[C@@H]1C[C@H]2CC3=C(CC[C@H](c4cnc5c(c4)[C@@]46C[C@H](C)C[C@@H](C5)[C@H]4CCCN6)N3)[C@]3(C1)NCCC[C@H]23 [COMPLANADINE D]
MIC (Cryptococcus neoformans): 0.26 µg/mL (≈ 0.534 µM)
MIC (Aspergillus niger): 4.16 µg/mL (≈ 8.55 µM)
IC50 (L1210): 7 µg/mL (≈ 14.4 µM)
Activity (1321-N1): Active
